From US7393834B2, “LHRH-antagonists in the treatment of fertility disorders” (AEterna Zentaris GmbH, priority 1996, dated 2008)
Entries after “also recorded” stand apart in the source; their conditions may differ. Where a SMILES comes first, the peptide text is derived from it. [ ]: non-standard residue; d: D form. dPhe(4-Cl) = N[C@H](Cc1ccc(Cl)cc1)C(=O)O; d2Nal = N[C@H](Cc1ccc2ccccc2c1)C(=O)O; dCit = NC(=O)NCCC[C@@H](N)C(=O)O; d3Pal = N[C@H](Cc1cccnc1)C(=O)O

Key:
premature LH surge = test: Phase II clinical trial of Cetrorelix in controlled ovarian stimulation (COS/ART); format: in vivo, human; conditions: for babies born by the end of May 1996: by end of May 1996; for minimal effective dose, Dose/Day / no effect dose, Dose/Day: phase II dose finding
Protocol: The results of a phase II clinical trial are shown in Table I. A total of […] patients were treated.
During multiple dosing, the mean days of Cetrorelix application is 6 days. 25 babies were born by the end of May 1996 (7 following multiple doses; 18 following single/dual doses).
The hormone levels of luteinizing hormone (LH) (μg/l) (∘), follicular stimulating hormone (FSH) (μg/l) (+), progesterone (μg/l) (●), and oestradiol (E2) (ng/l) (▾) were measured in patient number 21L07 at time intervals one month (Nov. 10, 1995) and four consecutive days before (Dec. 05, 1995-Dec. 09, 1995) a dual dose regimen of Cetrorelix (3 mg) was administered subcutaneously on Dec. 10, 1995 and Dec. 11, 1995. The patient's LH, FSH, progesterone and oestradiol levels were measured afterward between Dec. 11, 1995 and Dec. 14, 1995 wherein ovulation in the patient was induced with human chorionic gonadotrophin (HCG) on Dec. 14, 1995. The patients LH, FSH, progesterone, and oestradiol levels were also measured after HCG treatment through ovum pick up (OPU; Dec. 16, 1995), and embryo transfer (ET) on […]. Hormone levels were also measured on the 4th and (Dec. 22, 1995) and 16th day after ET(Jan. 3,1996).
238 patients were treated with Cetrorelix by subcutaneous injection of Cetrorelix Acetat-Lyophilisat.
134 patients were treated with multiple doses and 104 patients with single or dual doses. The multiple doses are 0.25 mg/day or higher. […]

[1] = tested on: follicular growth / pituitary; test: Animal experiments and clinical studies with Cetrorelix in normal, unstimulated cycles; format: in vivo
Text: These low dosage levels present new possibilities for manipulating the time of ovulation during a normal, not exogenous gonadotropin-stimulated cycle, without affecting the viability of the growing follicle. In case of inadequate follicular growth related to treatment with LHRH-antagonists, low dose and short term administration of gonadotrophin or other trophic compounds will compensate for these effects. Subsequently, by stopping the LHRH-antagonist treatment, it is possible to let the normal ovulation occur or to induce ovulation by exogenous manipulation, if necessary. Ovulation induction was induced by the administration of standard HCG or by administration of LHRH and/or LHRH agonistic analogs. These described treatment alternatives are a departure from existing protocols, since they are possible only if preceded by treatment for LH-surge-control with an LHRH-antagonist. In animal and clinical studies with Cetrorelix it was shown that the responsiveness of the pituitary to LHRH or agonistic analogs is preserved under these conditions of treatment. Without this treatment, the pituitary cannot respond after agonistic pretreatment for LH-surge control due to receptor down-regulation. In addition, the possible use of ovulation inducing agents other than HCG results in a-reduced incidence of ovarian hyperstimulation syndrome.

[2] = tested on: controlled ovarian stimulation (COS); test: Combination of Cetrorelix, clomifen citrate and gonadotrophins for hormonal stimulation for IVF/ICSI; format: in vivo, human; conditions: for fertilization rates: ICSI
Protocol: Combination of the GnRH antagonist Cetrorelix, clomifen citrate(CC) and gonadotrophins for hormonal stimulation for IVF/ICSI. New controlled ovarian stimulation (COS) protocols become possible, which combine the advantages of clomifen citrate/gonadotrophin stimulation and pituitary suppression with Cetrorelix. COS was started on day 2 after spontaneous menstrual bleeding using 100 mg CC per day for 5 or 7 days. The antagonist Cetrorelix (0.25 mg s.c.) was given starting on stimulation day 6 combined with either urinary hMG or recombinant FSH (3 ampoules/d) in a prospective randomized way. After two days of gonadotrophin injection, the dose was individualized. Human chorionic gonadotropin was given for ovulation induction, if at least 3 follicles were ≧17 mm in diameter. In total, 30 patients were included in the study. 15 were randomized in each group. Intra cytoplasmatic sperm injection (ICSI) was applied in each case.

premature LH surges = conditions: short term treatment, first clinical trials; cited from earlier work
[3] = all phase II patients, both regimens
[4] = single patient, dual dose regimen of 3 mg s.c.

## CC(=O)N[C@H](Cc1ccc2ccccc2c1)C(=O)N[C@H](Cc1ccc(Cl)cc1)C(=O)N[C@H](Cc1cccnc1)C(=O)N[C@@H](CO)C(=O)N[C@@H](Cc1ccc(O)cc1)C(=O)N[C@H](CCCNC(N)=O)C(=O)N[C@@H](CC(C)C)C(=O)N[C@@H](CCCNC(=N)N)C(=O)N1CCC[C@H]1C(=O)N[C@H](C)C(N)=O [Cetrorelix] (Ac-[d2Nal][dPhe(4-Cl)][d3Pal]SY[dCit]LRP[dA]-NH2)
Premature LH surge; after both posologies (single and multiple dose)
  fertilization rates, follicle and oocytes quality: good fertilization rates
Premature LH surge; after both treatments (single and multiple dose)
  pregnancy rates: good
Premature LH surge; all patients
  babies born by the end of May 1996: 25
Premature LH surge; [3]
  pregnancies obtained (number): 71 pregnancies
  pregnancies obtained (rate): 30%
Premature LH surge; following multiple doses
  babies born: 15
  babies born by the end of May 1996: 7
Premature LH surge; following single/dual doses
  babies born: 29
  babies born by the end of May 1996: 18
Premature LH surge; multiple dose regimen, 134 patients
  pregnancies (rate): 28.4%
Premature LH surge; multiple dose regimen, of 134 patients
  pregnancies (number): 38
Premature LH surge; multiple dose, 3-7/14 days
  minimal effective dose, Dose/Day: 0.25 min. effect, dose mg
  no effect dose, Dose/Day: 0.10 no effect. dose mg
Premature LH surge; patients undergoing COS/ART, multiple doses of 0.25 mg or higher or single dose of 3 mg or higher, s.c.
  premature LH surge: prevention of any premature LH surge; also recorded: No premature LH surge
Premature LH surge; single dose (1 day)
  minimal effective dose, Dose/Day: 3 min. effective dose mg
  no effect dose, Dose/Day: 2 no effect. Dose mg
Premature LH surge; single dose regimen, one injection of 3 mg
  duration of effect to prevent a premature LH surge: up to 6.5 days
Premature LH surge; [4]
  FSH secretion (FIG. 1): maintained at a natural level
  individual estrogen development (FIG. 1): not affected
  premature LH surge (FIG. 1): absolute prevention of any premature LH surge
Premature LH surge; single/dual dosage regimen, 104 patients
  pregnancies (rate): 31.7%
Premature LH surge; single/dual dosage regimen, of 104 patients
  pregnancies (number): 33
[1]; multiple or single injections, extremely low dosage levels
  normal, unstimulated follicular growth: arrest of the normal, unstimulated follicular growth
[1]; under LH-surge-control treatment with the antagonist
  responsiveness of the pituitary to LHRH or agonistic analogs: preserved
[2]; 30 patients, both groups
  ovarian hyperstimulation syndrome (OHSS): no case of OHSS was observed
[2]; hMG group
  clinical pregnancy rate/transfer: 4/14
  metaphase II oocytes: 74%
  oocytes per cycle retrieved: 7.7±3.8
  transfer rate/cycle: 87%
  fertilization rates: 42%
[2]; recombinant FSH group
  clinical pregnancy rate/transfer: 1/11
  metaphase II oocytes: 80%
  oocytes per cycle retrieved: 6.4±2.6
  transfer rate/cycle: 80%
  fertilization rates: 53%
Premature LH surges
  premature LH surges during stimulated cycles: complete avoidance of premature LH surges
